Measurements as given in patent publication US20240228512A1, “ACYCLIC OXAZEPINE COMPOUNDS COMPRISING A 6-AZA MOIETY AND USES THEREOF” (Genentech, Inc., priority 2022, published 2024).
Like-named read-outs stand apart in the source and are kept apart here.

Key:
[1] = target: recombinant human KRAS wild type (SOS1-mediated nucleotide exchange) (Homo sapiens (Human), UniProt P01116); experiment: KRAS biochemical assay, BODIPY-GDP exchange TR-FRET (WT-GDP HTRF)
[2] = test system: HPAC cells; experiment: HPAC 3D proliferation assay (CellTiter-Glo); assay type: cell-based; details: 3D culture, 7 days, read-out: HPAC CTG IC50
Outline: (§1)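 IC50 values were fitted with a 4-parameter logistic to luminescent ATP signal (CellTiter-Glo 3D) after 7-day compound exposure. Seeding was 3000 (96-well) or 1000 (384-well) cells/well in low-attachment plates with RPMI-1640, 10% FBS, 2 mM L-glutamine.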

[3] = test system: SW620 cells; experiment: SW620 3D proliferation assay (CellTiter-Glo); assay type: cell-based; details: SW620, 3D culture, 7 days, read-out: SW620 CTG IC50
Outline: as §1

[4] = test system: H1975 cells; experiment: H1975 CTG proliferation assay; assay type: cell-based
[5] = test system: SW480 cells; experiment: SW480 CTG proliferation assay; assay type: cell-based; details: Homo sapiens
[6] = target: recombinant human mutant KRas G12V (SOS1-mediated nucleotide exchange) (Homo sapiens (Human), UniProt P01116, G12V); experiment: KRAS biochemical assay, BODIPY-GDP exchange TR-FRET (G12V-GDP HTRF)
Sequence of recombinant human mutant KRas G12V (SOS1-mediated nucleotide exchange) (P01116-2 other isoform, or with tags, fused parts or gaps G12V): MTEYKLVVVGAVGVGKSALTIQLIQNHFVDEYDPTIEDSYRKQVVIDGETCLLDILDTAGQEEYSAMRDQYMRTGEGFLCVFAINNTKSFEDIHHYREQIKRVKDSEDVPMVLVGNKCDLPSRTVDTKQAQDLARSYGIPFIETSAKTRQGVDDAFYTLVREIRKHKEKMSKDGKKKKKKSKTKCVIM

[7] = test system: SW620 PERK; experiment: SW620 PERK assay; assay type: cell-based
[8] = Homo sapiens, NCI-H1975, H1975, CTG
[9] = Homo sapiens, SW-620, SW620, PERK

Sequence of recombinant human KRAS wild type (SOS1-mediated nucleotide exchange) (P01116-2 other isoform, or with tags, fused parts or gaps): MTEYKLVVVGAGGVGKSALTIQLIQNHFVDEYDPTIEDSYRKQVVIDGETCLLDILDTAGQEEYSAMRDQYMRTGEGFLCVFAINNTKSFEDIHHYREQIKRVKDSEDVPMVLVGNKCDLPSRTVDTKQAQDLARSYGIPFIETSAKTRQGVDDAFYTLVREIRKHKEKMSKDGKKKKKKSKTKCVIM

## Cc1cc(N)nc(-c2nc3c4c(nc(OC[C@@]56CCCN5C[C@H](F)C6)nc4c2F)N([C@H](C)c2cccnc2N)CCO3)c1C(F)(F)F [Example 6, 6-(10-((R)-1-(2-aminopyridin-3-yl)ethyl)-4-fluoro-2-(((2R,7aS)-2-fluorotetrahydro-1H-pyrrolizin-7a(5H)-yl)methoxy)-9,10-dihydro-8H-7-oxa-1,3,6,10-tetraazacyclohepta[de]naphthalen-5-yl)-4-methyl-5-(trifluoromethyl)pyridin-2-amine]
[1]
  IC50: 0.215 nM
[2]; Homo sapiens, 168 h
  IC50: 43.7 nM
[3]; Homo sapiens, SW-620, 168 h
  IC50: 13.4 nM
[4]; [8]
  IC50: 7.23 nM
[5]
  IC50: 120 nM
[6]
  IC50: 0.21 nM
[7]; [9]
  IC50: 7.68 nM

## Cc1nc(N)cc(-c2nc3c4c(nc(OC[C@@]56CCCN5C[C@H](F)C6)nc4c2F)N([C@H](C)c2cccnc2N)CCO3)c1C(F)(F)F [Example 14, 4-(10-((R)-1-(2-aminopyridin-3-yl)ethyl)-4-fluoro-2-(((2R,7aS)-2-fluorotetrahydro-1H-pyrrolizin-7a(5H)-yl)methoxy)-9,10-dihydro-8H-7-oxa-1,3,6,10-tetraazacyclohepta[de]naphthalen-5-yl)-6-methyl-5-(trifluoromethyl)pyridin-2-amine]
[1]
  IC50: 0.434 nM
[2]; Homo sapiens, 168 h
  IC50: 76 nM
[3]; Homo sapiens, SW-620, 168 h
  IC50: 13.9 nM
[4]; [8]
  IC50: 116 nM
[5]
  IC50: 130 nM
[6]
  IC50: 0.17 nM
[7]; [9]
  IC50: 2.65 nM

## C[C@H](c1cccnc1N)N1CCOc2nc(-c3cc(O)cc4ccccc34)c(F)c3nc(OC[C@@]45CCCN4C[C@H](F)C5)nc1c23 [Example 26, 4-(10-((R)-1-(2-aminopyridin-3-yl)ethyl)-4-fluoro-2-(((2R,7aS)-2-fluorotetrahydro-1H-pyrrolizin-7a(5H)-yl)methoxy)-9,10-dihydro-8H-7-oxa-1,3,6,10-tetraazacyclohepta[de]naphthalen-5-yl)naphthalen-2-ol]
[1]
  IC50: 0.26 nM
[2]; Homo sapiens, 168 h
  IC50: 416 nM
[3]; Homo sapiens, SW-620, 168 h
  IC50: 32.3 nM
[4]; [8]
  IC50: 77 nM
[5]
  IC50: 350 nM
[6]
  IC50: 0.11 nM
[7]; [9]
  IC50: 19.3 nM

## Cc1c(F)c(N)nc(-c2nc3c4c(nc(OC[C@@]56CCCN5C[C@H](F)C6)nc4c2F)N([C@H](C)c2cccnc2N)CCO3)c1C(F)(F)F [Example 604, 6-(10-((R)-1-(2-aminopyridin-3-yl)ethyl)-4-fluoro-2-(((2R,7aS)-2-fluorotetrahydro-1H-pyrrolizin-7a(5H)-yl)methoxy)-9,10-dihydro-8H-7-oxa-1,3,6,10-tetraazacyclohepta[de]naphthalen-5-yl)-3-fluoro-4-methyl-5-(trifluoromethyl)pyridin-2-amine]
[1]
  IC50: 0.225 nM
[2]; Homo sapiens, 168 h
  IC50: 26.5 nM
[3]; Homo sapiens, SW-620, 168 h
  IC50: 5.33 nM
[4]; [8]
  IC50: 283 nM
[5]
  IC50: > 200 nM
[6]
  IC50: 0.099 nM
[7]; [9]
  IC50: 2.93 nM

## Cc1c(F)c(N)cc(-c2nc3c4c(nc(OC[C@@]56CCCN5C[C@]5(CC5(F)F)C6)nc4c2F)N([C@H](C)c2cncnc2N)CCO3)c1C(F)(F)F [Example 616]
[1]
  IC50: 0.195 nM
[2]; Homo sapiens, 168 h
  IC50: 50.4 nM
[3]; Homo sapiens, SW-620, 168 h
  IC50: 8.46 nM
[4]; [8]
  IC50: 2.59 nM
[5]
  IC50: > 200 nM
[6]
  IC50: 0.09 nM
[7]; [9]
  IC50: 4.64 nM

## C#Cc1cccc2cc(O)cc(-c3nc4c5c(nc(OC[C@@]67CCCN6C[C@H](F)C7)nc5c3F)N([C@H](C)c3cccnc3N)CCO4)c12 [Example 7, 4-(10-((R)-1-(2-aminopyridin-3-yl)ethyl)-4-fluoro-2-(((2R,7aS)-2-fluorotetrahydro-1H-pyrrolizin-7a(5H)-yl)methoxy)-9,10-dihydro-8H-7-oxa-1,3,6,10-tetraazacyclohepta[de]naphthalen-5-yl)-5-ethynyinaphthalen-2-ol]
[1]
  IC50: 0.12 nM
[2]; Homo sapiens, 168 h
  IC50: 19.3 nM
[3]; Homo sapiens, SW-620, 168 h
  IC50: 1.96 nM
[4]; [8]
  IC50: 2.59 nM
[5]
  IC50: 12 nM
[6]
  IC50: 0.04 nM
[7]; [9]
  IC50: 1.13 nM

## Cc1c(F)c(N)c(F)c(-c2nc3c4c(nc(OC[C@@]56CCCN5C[C@H](F)C6)nc4c2Cl)N([C@H](C)c2cccnc2N)CCO3)c1C(F)(F)F (atropisomer, axis not shown; (aS)) [Example 629a, 3-((R)-1-((R)-5-(3-amino-2,4-difluoro-5-methyl-6-(trifluoromethyl)phenyl)-4-chloro-2-(((2R,7aS)-2-fluorotetrahydro-1H-pyrrolizin-7a(5H)-yl)methoxy)-8,9-dihydro-10H-7-oxa-1,3,6,10-tetraazacyclohepta[de]naphthalen-10-yl)ethyl)pyridin-2-amine]
[1]
  IC50: 0.178 nM
[2]; Homo sapiens, 168 h
  IC50: 15.3 nM
[3]; Homo sapiens, SW-620, 168 h
  IC50: 1.71 nM
[4]; [8]
  IC50: 176 nM
[5]
  IC50: 20 nM
[6]
  IC50: 0.069 nM
[7]; [9]
  IC50: 1.33 nM

## Cc1cc(N)c(F)c(-c2nc3c4c(nc(OC[C@@]56CCCN5C[C@]5(CC5(F)F)C6)nc4c2F)N([C@H](C)c2nccnc2N)CCO3)c1C(F)(F)F [Example 609]
[1]
  IC50: 0.415 nM
[2]; Homo sapiens, 168 h
  IC50: 34 nM
[3]; Homo sapiens, SW-620, 168 h
  IC50: 5.72 nM
[4]; [8]
  IC50: 14500 nM
[5]
  IC50: 58 nM
[6]
  IC50: 0.21 nM
[7]; [9]
  IC50: 5.62 nM

## C#Cc1c(F)ccc2cc(O)cc(-c3nc4c5c(nc(OC[C@@]67CCCN6C[C@H](F)C7)nc5c3F)N([C@H](C)c3cccnc3N)CCO4)c12 [Example 2, 4-(10-((R)-1-(2-aminopyridin-3-yl)ethyl)-4-fluoro-2-(((2R,7aS)-2-fluorotetrahydro-1H-pyrrolizin-7a(5H)-yl)methoxy)-9,10-dihydro-8H-7-oxa-1,3,6,10-tetraazacyclohepta[de]naphthalen-5-yl)-5-ethynyl-6-fluoronaphthalen-2-ol]
[1]
  IC50: 0.0671 nM
[2]; Homo sapiens, 168 h
  IC50: 20.8 nM
[3]; Homo sapiens, SW-620, 168 h
  IC50: 2.41 nM
[4]; [8]
  IC50: 2.59 nM
[5]
  IC50: 2.9 nM
[6]
  IC50: 0.08 nM
[7]; [9]
  IC50: 1.29 nM

## Cc1cc(N)c(Cl)c(-c2nc3c4c(nc(OC[C@@]56CCCN5C[C@H](F)C6)nc4c2F)N([C@H](C)c2cccnc2N)CCO3)c1C(F)(F)F (single isomer, unassigned) [Example 21b]
[1]
  IC50: 0.07 nM
[2]
  IC50: 4.43 nM
[3]
  IC50: 1 nM
[4]; H1975, CTG
  IC50: 2.59 nM
[5]
  IC50: 2.4 nM
[6]
  IC50: 0.05 nM
[7]; SW620, PERK
  IC50: 0.555 nM

## Cc1cc(N)nc(-c2nc3c4c(nc(OC[C@@]56CCCN5C[C@]5(CC5(F)F)C6)nc4c2F)N([C@H](C)c2cccnc2N)CCO3)c1C(F)(F)F [Example 635]
[1]
  IC50: 0.325 nM
[2]; Homo sapiens, 168 h
  IC50: 11.8 nM
[3]; Homo sapiens, SW-620, 168 h
  IC50: 3.55 nM
[4]; [8]
  IC50: 2.54 nM
[5]
  IC50: > 200 nM
[6]
  IC50: 0.21 nM
[7]; [9]
  IC50: 2.15 nM

## Cc1c(F)c(N)cc(-c2nc3c4c(nc(OC[C@@]56CCCN5C[C@H](F)C6)nc4c2F)N([C@H](C)c2cccnc2N)CCO3)c1C(F)(F)F [Example 5, 3-((R)-1-(5-(5-amino-4-fluoro-3-methyl-2-(trifluoromethyl)phenyl)-4-fluoro-2-(((2R,7aS)-2-fluorotetrahydro-1H-pyrrolizin-7a(5H)-yl)methoxy)-8,9-dihydro-10H-7-oxa-1,3,6,10-tetraazacyclohepta[de]naphthalen-10-yl)ethyl)pyridin-2-amine]
[1]
  IC50: 0.0529 nM
[2]; Homo sapiens, 168 h
  IC50: 5.06 nM
[3]; Homo sapiens, SW-620, 168 h
  IC50: 1.14 nM
[4]; [8]
  IC50: 12.8 nM
[5]
  IC50: 5.8 nM
[6]
  IC50: 0.045 nM
[7]; [9]
  IC50: 0.72 nM

## Cc1nc(N)cc(-c2nc3c4c(nc(OC[C@@]56CCCN5C[C@]5(CC5(F)F)C6)nc4c2F)N([C@H](C)c2cccnc2N)CCO3)c1C(F)(F)F [Example 615]
[1]
  IC50: 0.175 nM
[2]; Homo sapiens, 168 h
  IC50: 12.3 nM
[3]; Homo sapiens, SW-620, 168 h
  IC50: 1.92 nM
[4]; [8]
  IC50: 951 nM
[5]
  IC50: 18 nM
[6]
  IC50: 0.14 nM
[7]; [9]
  IC50: 2.02 nM

## C#Cc1cccc2cc(N)cc(-c3nc4c5c(nc(OC[C@@]67CCCN6C[C@H](F)C7)nc5c3F)N([C@H](C)c3cccnc3N)CCO4)c12 [Example 4, 3-((R)-1-(5-(3-amino-8-ethynyinaphthalen-1-yl)-4-fluoro-2-(((2R,7aS)-2-fluorotetrahydro-1H-pyrrolizin-7a(5H)-yl)methoxy)-8,9-dihydro-10H-7-oxa-1,3,6,10-tetraazacyclohepta[de]naphthalen-10-yl)ethyl)pyridin-2-amine]
[2]; Homo sapiens, 168 h
  IC50: 5.72 nM
[3]; Homo sapiens, SW-620, 168 h
  IC50: 1.26 nM
[4]; [8]
  IC50: 2.59 nM
[5]
  IC50: 2.4 nM
[7]; [9]
  IC50: 1.07 nM
